A short description of the series: Resistance of high purity ethyl lactate to peroxide formation in air (Quantofix test paper). It is filed as physicochemical. As to conditions: for level of peroxide: 250 ml ethyl lactate + 0.3 g agent, stirred in air. As to the method: In the procedure used, 250 ml of high purity ethyl lactate containing 0.0 ppm of peroxide as measured with Quantofix™ test paper was added to each of four beakers. The first beaker served as a control and was not treated with any chemical agent. The second beaker was treated with 0.3 g of BHT. The third beaker was treated with 0.3 g of cysteine and the fourth beaker was treated with 0.3 g of methionine. […] The level of peroxide in each of the ethyl lactate samples was monitored and is reported as a function of time in Table 2.

For `Cc1cc(C(C)(C)C)c(O)c(C(C)(C)C)c1` [BHT, butylated hydroxyl toluene], the level of peroxide is given as 0.0 ppm (time 0 minutes); 0.0 ppm (time 15 minutes); 0.0 ppm (time 30 minutes); 0.0 ppm (time 60 minutes); 0.0 ppm (time 75 minutes); 0.0 ppm (time 90 minutes). Further, the level of peroxide runs as follows: (time 105 minutes) 0.0 ppm; (time 120 minutes) 0.0 ppm; (time 150 minutes) 0.0 ppm; (time 180 minutes) 0.0 ppm; (time 240 minutes) 0.0 ppm; (time 300 minutes) 0.0 ppm. The level of peroxide is, setting by setting: (time 360 minutes) 0.0 ppm; (time 1440 minutes) 0.0 ppm. In addition, the “effectiveness as stabilizer against peroxide generation” value (compared with the other compounds evaluated) is on record as “most effective”. Also, the Gardner color rating (ethyl lactate stabilized with BHT, throughout the trial period) came to 1.
In the case of `CSCC[C@H](N)C(=O)O` [Methionine, methionine], the level of peroxide (time 0 minutes) worked out at 0.0 ppm; the level of peroxide (time 15 minutes) came to 0.0 ppm; the level of peroxide (time 30 minutes) worked out at 0.0 ppm; the level of peroxide (time 60 minutes) is recorded as 0.5 ppm; the level of peroxide (time 75 minutes) is recorded as 0.5-2.0 ppm; the level of peroxide (time 90 minutes) was 0.5-2.0 ppm. Further, the level of peroxide is given as 2.0 ppm (time 105 minutes); 2.0 ppm (time 120 minutes); 2.0 ppm (time 150 minutes); 5.0 ppm (time 180 minutes); 2.0-5.0 ppm (time 240 minutes); 5.0 ppm (time 300 minutes). The level of peroxide is given as 5.0 ppm (time 360 minutes) and 5.0 ppm (time 1440 minutes).
Regarding `N[C@@H](CS)C(=O)O` [Cysteine, cysteine], the level of peroxide is recorded as 0.0 ppm (time 0 minutes); 0.0 ppm (time 15 minutes); 0.0 ppm (time 30 minutes); 0.0 ppm (time 60 minutes); 0.0 ppm (time 75 minutes); 0.0 ppm (time 90 minutes). Besides, the level of peroxide was 0.0 ppm (time 105 minutes); 0.0 ppm (time 120 minutes); 0.0 ppm (time 150 minutes); 0.0 ppm (time 180 minutes); 0.0 ppm (time 240 minutes); 0.0 ppm (time 300 minutes). For the same compound, the level of peroxide is, setting by setting: (time 360 minutes) 0.0 ppm; (time 1440 minutes) 0.0-0.5 ppm.
